Experimental data taken from article PMC7462607 (eLife, 2020).
“And” between values parts separate entries of the source, which are not always exact repeats. Identical values can stand only once.

Legend:
[1] = molecular target: T1, 3xFLAG-CDK12/CCNK and DDB1 (Homo sapiens, UniProt Q9NYV4); experiment: Co-immunoprecipitation of CCNK and DDB1 with 3xFLAG-CDK12 complex; type: binding; settings: A549 3xFLAG-CDK12 knock-in lysates
T1 construct: A549 3xFLAG-CDK12 knock-in cells were detached from plates by scraping; endogenous in cells; host or cells: A549 3xFLAG-CDK12 knock-in cells (lysate)
T1 sequence (Q9NYV4 whole entry): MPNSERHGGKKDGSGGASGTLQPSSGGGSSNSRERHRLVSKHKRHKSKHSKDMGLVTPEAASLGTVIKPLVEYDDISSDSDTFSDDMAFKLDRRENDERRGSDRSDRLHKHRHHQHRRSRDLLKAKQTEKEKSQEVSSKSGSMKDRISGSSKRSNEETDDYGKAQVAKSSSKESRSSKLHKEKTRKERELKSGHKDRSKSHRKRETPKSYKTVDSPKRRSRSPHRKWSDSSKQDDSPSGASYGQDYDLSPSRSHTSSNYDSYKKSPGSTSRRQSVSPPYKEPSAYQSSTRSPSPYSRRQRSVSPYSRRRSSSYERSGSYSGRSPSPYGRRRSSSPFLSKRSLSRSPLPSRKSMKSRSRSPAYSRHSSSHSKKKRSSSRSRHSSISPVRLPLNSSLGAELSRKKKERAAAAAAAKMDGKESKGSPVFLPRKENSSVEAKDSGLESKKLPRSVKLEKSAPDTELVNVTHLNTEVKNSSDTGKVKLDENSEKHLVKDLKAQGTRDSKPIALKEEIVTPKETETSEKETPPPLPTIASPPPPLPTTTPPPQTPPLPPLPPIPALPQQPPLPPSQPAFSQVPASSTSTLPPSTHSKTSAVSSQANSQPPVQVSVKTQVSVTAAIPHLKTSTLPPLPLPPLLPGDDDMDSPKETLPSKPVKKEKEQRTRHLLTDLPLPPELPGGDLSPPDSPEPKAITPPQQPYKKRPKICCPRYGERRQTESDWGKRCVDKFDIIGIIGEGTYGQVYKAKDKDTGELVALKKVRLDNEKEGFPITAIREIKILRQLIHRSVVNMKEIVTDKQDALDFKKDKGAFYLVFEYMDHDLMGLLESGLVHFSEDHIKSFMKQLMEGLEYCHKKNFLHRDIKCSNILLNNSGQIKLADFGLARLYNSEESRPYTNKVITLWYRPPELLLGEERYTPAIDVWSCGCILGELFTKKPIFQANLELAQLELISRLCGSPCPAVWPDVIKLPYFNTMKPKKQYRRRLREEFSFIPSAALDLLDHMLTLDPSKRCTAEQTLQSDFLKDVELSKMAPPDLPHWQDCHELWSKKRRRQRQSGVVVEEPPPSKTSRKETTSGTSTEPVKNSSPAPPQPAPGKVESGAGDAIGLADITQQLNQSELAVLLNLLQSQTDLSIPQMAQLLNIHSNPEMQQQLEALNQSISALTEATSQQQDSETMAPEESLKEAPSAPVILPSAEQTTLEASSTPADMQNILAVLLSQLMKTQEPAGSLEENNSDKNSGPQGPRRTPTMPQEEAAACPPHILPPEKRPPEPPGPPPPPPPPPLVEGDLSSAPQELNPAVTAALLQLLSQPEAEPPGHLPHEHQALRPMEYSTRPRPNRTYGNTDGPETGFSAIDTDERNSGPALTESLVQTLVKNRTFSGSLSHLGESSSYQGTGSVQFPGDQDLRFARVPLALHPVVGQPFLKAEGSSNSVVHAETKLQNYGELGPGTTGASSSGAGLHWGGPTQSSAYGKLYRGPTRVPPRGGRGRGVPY
T1 sequence (O75909 whole entry partner): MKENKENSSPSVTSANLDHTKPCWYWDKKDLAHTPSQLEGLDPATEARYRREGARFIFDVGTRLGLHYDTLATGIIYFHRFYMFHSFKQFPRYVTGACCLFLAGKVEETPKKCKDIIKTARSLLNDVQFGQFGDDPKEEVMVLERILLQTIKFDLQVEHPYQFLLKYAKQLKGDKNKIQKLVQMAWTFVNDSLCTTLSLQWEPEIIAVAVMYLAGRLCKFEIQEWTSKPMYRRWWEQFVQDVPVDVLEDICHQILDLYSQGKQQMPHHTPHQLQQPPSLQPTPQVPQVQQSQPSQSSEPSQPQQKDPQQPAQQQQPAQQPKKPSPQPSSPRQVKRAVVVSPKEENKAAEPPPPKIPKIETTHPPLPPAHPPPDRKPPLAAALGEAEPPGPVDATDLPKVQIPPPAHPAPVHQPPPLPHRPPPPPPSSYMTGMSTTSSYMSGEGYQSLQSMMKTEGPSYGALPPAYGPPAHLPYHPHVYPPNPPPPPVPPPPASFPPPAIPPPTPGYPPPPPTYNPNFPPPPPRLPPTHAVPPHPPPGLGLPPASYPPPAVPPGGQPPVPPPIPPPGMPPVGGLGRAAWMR
T1 sequence (Q16531 2-1140 partner limits assumed): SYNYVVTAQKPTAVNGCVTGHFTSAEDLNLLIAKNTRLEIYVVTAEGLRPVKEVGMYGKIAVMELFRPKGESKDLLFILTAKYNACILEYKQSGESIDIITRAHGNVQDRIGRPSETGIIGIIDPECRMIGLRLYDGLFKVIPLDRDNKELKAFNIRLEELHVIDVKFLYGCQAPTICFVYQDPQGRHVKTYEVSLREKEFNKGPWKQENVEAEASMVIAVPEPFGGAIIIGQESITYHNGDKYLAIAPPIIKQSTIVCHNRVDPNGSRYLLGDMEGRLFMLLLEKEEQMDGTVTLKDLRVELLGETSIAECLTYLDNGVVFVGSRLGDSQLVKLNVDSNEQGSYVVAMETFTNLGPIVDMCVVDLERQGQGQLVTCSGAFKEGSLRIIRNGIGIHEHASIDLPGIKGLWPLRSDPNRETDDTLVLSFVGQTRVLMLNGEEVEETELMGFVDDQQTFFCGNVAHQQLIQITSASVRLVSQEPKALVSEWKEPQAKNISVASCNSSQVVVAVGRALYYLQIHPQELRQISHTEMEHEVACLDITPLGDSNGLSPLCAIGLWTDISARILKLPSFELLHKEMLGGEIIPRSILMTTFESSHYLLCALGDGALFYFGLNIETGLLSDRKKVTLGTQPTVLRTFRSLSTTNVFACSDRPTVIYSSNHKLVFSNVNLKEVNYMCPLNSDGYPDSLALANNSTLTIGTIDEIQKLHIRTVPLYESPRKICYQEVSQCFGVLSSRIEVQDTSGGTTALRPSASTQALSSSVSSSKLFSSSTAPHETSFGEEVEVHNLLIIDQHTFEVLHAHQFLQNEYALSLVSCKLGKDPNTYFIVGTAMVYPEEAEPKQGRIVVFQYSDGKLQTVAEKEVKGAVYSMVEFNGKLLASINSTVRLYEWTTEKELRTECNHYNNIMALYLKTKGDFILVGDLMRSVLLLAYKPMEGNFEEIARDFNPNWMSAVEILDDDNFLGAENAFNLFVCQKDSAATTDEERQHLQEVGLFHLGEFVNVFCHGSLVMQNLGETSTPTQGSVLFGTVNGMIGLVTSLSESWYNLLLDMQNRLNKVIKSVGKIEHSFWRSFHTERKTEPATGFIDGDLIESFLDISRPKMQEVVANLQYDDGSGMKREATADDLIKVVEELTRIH
Protocol: Anti-FLAG M2 antibody (Sigma-Aldrich, MO, USA F3165) was coupled to magnetic epoxy beads (Beijing Yunci Technology Co., Beijing, China) at the ratio of 10 μg of anti-FLAG antibody/mg of beads in the presence of 1 M ammonium acetate and 0.1 M sodium phosphate, pH 7.4 at 37°C overnight. A549 3xFLAG-CDK12 knock-in cells were detached from plates by scraping, washed in DPBS, and then frozen in liquid nitrogen. Frozen cells were pulverized using a mixer mill MM 400 (Retsch, Haan, Germany) with two rounds of 1 min ball milling at 30 Hz. Per experiment, 25 mg of grinded cell powder was solubilized with 250 µL of IP buffer (50 mM HEPES, pH 7.4, 300 mM NaCl, 0.1% Tween-20) supplemented with 1x cOmplete, Mini, EDTA-free protease inhibitor cocktail (Roche, Bazel, Switzerland). The resulting lysates were centrifuged at 15,000 g for 10 min at 4°C. Clarified lysates were supplemented with HQ461 or DMSO and incubated at 4°C for 30 min. Afterwards, 0.2 mg of anti-FLAG-conjugated magnetic beads were mixed with clarified lysates for 15 min on a rotating platform at 4°C, followed by three washes with IP buffer supplemented with HQ461 or DMSO. Bound proteins were eluted from magnetic beads with 1 mg/ml of 3 × FLAG peptide (Sigma-Aldrich, MO, USA F4799) with agitation at 4°C for 30 min. Eluted proteins were subjected to SDS-PAGE and western blotting with anti-FLAG-HRP, anti-CCNK, and anti-DDB1. […]

[2] = molecular target: T2, FLAG-Avi-DDB1 and His-CDK12KD G731E/His-CCNKΔC (Homo sapiens, UniProt Q9NYV4, G731E); experiment: AlphaScreen assay, G731E; type: binding; settings: for AlphaScreen: G731E, raw signal
T2 construct: Human CDK12KD (residues 715–1052); made in house; host or cells: Sf9 or High Five (CDK12KD/CCNKΔC, co-infected with yeast CAK1); 293F with BirA (FLAG-Avi-DDB1)
T2 sequence (Q9NYV4 715-1052 G731E limits assumed): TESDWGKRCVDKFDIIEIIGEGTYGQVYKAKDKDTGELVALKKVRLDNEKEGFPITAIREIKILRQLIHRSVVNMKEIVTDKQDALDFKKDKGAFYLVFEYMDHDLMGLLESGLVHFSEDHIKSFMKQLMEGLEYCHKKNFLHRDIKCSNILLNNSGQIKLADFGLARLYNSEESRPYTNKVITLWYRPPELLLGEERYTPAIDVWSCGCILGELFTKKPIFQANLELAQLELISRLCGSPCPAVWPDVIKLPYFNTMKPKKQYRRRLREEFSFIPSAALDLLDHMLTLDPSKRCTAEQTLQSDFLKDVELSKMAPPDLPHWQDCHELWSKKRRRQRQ
T2 sequence (O75909 11-267 partner limits assumed): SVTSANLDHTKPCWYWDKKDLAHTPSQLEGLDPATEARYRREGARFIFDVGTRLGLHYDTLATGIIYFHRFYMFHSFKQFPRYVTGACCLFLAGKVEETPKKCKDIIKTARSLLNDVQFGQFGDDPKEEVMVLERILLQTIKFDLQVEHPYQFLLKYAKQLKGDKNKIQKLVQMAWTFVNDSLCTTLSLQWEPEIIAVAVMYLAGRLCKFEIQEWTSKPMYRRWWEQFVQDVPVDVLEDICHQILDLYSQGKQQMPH
Protocol: Biotinylated FLAG-Avi-DDB1 (3 µM) and 6xHis-CDK12KD/6xHis-CCNKΔC (WT or G731E/R mutants) (3 µM) were mixed in an assay buffer (50 mM HEPES, pH7.5, 300 mM NaCl, 0.5 mM TCEP, 0.1% NP-40, 0.1% BSA) and a serial dilution of HQ461.The protein-compound mix was transferred to 384-well plates (Corning, Corning, USA); 15 μL per well. After a 1 hr room temperature incubation, 10 µL of nickel chelate (Ni-NTA) acceptor beads (PerkinElmer, Waltham, USA, Waltham, USA, 6760619C) (1:100 diluted with assay buffer) was added per well. After incubation in the dark for 1 hr at room temperature, 10 μL of streptavidin donor beads (PerkinElmer, Waltham, USA, 6760619C) (1:100 diluted in assay buffer) was added per well. After another 1 hr incubation, AlphaScreen signal was measured on the EnVision multimode plate reader (PerkinElmer, Waltham, USA). For THZ531 competition, FLAG-Avi-DDB1, 6xHis-CDK12KD/6xHis-CCNKΔC mix was preincubated with 5 μM of THZ531 for 30 min on ice followed by the procedures described above.

CCNK-luc reporter = experiment: CCNK-luc degradation assay; type: cell-based, Homo sapiens; settings: 8 hr
Protocol: The ORF for CCNK was fused with the firefly luciferase (luc) sequence and inserted into the pCDNA3.1 vector. For setting up cells for co-transfection, 0.6 million 293 T cells were seeded per well in 6-well plates and allowed to attach to plates overnight. These cells were then transfected with 50 ng of pCDNA3.1-3xFLAG-CDK12 kinase domain, 50 ng of pCDNA3.1-CCNK-luc, and 400 ng of the empty pCDNA3.1 vector. Twenty-four hours later, transfected cells were dissociated by trypsin digestion and then plated in 96-well white plates. After overnight attachments, cells were then treated with HQ461 and its analog derivatives for 8 hr followed by measurements of luciferase activity with Bright-Glo luciferase assay system (Promega, Madison, USA). Half maximal CCNK-degradation concentrations (DC50) of HQ461 and its active analogs were interpolated by curve fitting with GraphPad Prism using baseline correction (by normalizing to DMSO control), the asymmetric (five parameter) equation, and least squares fit.

In the case of Cc1cccc(Nc2nc(CC(=O)Nc3ncc(C)s3)cs2)n1 [HQ461, 2-(2-((6-methylpyridin-2-yl)amino)thiazol-4-yl)-N-(5-methylthiazol-2-yl)acetamide], the “recruitment of DDB1 to CDK12/CCNK (coimmunoprecipitation)” value [1] is reported as “DDB1 was only detected with the CDK12/CCNK complex isolated from lysates treated with HQ461”, the AlphaScreen ([2]; HQ461 2.22e-6 M) is reported as 1248 and 1240 and 1185 and the AlphaScreen ([2]; HQ461 6.67e-6 M) is reported as 1251 and 1198 and 1100. The AlphaScreen ([2]; HQ461 2e-5 M) was 1233 and 1200 and 1143, the AlphaScreen ([2]; HQ461 2.47E-07 M) was 1234 and 1107 and 1145 and the AlphaScreen ([2]; HQ461 2.74E-08 M) was 1248 and 1124 and 1169. The AlphaScreen ([2]; HQ461 7.41E-07 M) was 1137 and 1171 and 1109, the AlphaScreen ([2]; HQ461 8.23E-08 M) was 1304 and 1157 and 1110 and the “complex formation with DDB1, G731E mutant” value ([2]; even with 20 µM of HQ461) was “did not form a complex with DDB1”. The “Dmax (10 μM), percentage of CCNK degradation relative to DMSO control” value (CCNK-luc reporter; 10 µM) was 86.0% and the DC50 (CCNK-luc reporter; 293T, read-out: DC50 (half maximal CCNK-degradation concentration)) was 132 nM.
